Source: US8236963B2, “Tricyclic spiro derivatives as CRTH2 modulators” (Merck Serono SA, priority 2005, dated 2012)

The compounds below were run against T1, CRTH2 (Homo sapiens, UniProt Q9Y5Y4) (assay: Determination of Ki (radioligand binding assay, equilibrium competition against [3H]PGD2)). Settings: average of at least three independent dose response experiments.
T1 sequence (Q9Y5Y4 1-395): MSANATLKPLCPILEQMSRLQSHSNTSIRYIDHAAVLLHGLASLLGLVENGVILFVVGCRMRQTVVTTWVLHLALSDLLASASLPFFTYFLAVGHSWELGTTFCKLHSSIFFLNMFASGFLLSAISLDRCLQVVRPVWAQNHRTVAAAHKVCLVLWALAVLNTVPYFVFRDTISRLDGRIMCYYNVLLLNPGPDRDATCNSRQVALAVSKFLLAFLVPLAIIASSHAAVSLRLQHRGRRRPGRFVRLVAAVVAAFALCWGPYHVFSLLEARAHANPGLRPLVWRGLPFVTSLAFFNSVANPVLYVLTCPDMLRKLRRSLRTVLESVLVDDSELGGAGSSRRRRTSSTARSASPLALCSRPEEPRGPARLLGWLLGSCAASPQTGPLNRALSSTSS
Design: expressed in transfected cells; host or cells: HEK293 (EBNA) cells, membrane preparation
Experimental: The inhibitory activity can be investigated by a radioligand binding assay (Sawyer et al., Br. J. Pharmocol 2002, 137, 1163-72). The radioligand binding assay was performed at room temperature in binding buffer (10 mM HEPES/KOH pH […], with protease inhibitor cocktail tablets), containing 1.5 nM [^3H]PGD2 (Amersham, 156 Cie/mmol), and 10 μg of hCRTH2 HEK293 (EBNA) cell membrane protein in a final volume of 100 μl in 96 well plates (Corning, USA). Non-specific binding was determined in the presence of 1 μM PGD2 (Cayman, USA). Competing spiro-indolinones were diluted in dimethylsulphoxide so that the total volume of dimethylsulfoxide was kept constant at 1% dimethylsulphoxide (Me2SO) Serial dilutions of 100 μM and […] were prepared. 10 μl each of these spiro-indolinone stock solutions were added. Incubation (60 min at room temperature) was terminated by rapid filtration through 96 wells hydrophobic GF/C Unifilter plates (Whatman, USA). Filters were washed twice with 250 μl of Tris-HCl pH 7.4, 10 mM MnCl2, and residual radioligand bound to the filters was mixed to 100 μl of liquid scintillation cocktail (Optiphase Supermix, Perkin Elmer, USA) and binding activity was determined by counting residual radioligand using a 1450 Micro-beta scintillation counter (Wallac, UK). The following representative compounds were tested. All inhibited the binding of PGD2 to CRTH2 by more than 70%. • (1′-benzyl-5-chloro-2,2′,5′-trioxospiro[indole-3,3′-pyrrolidin]-1(2H)-yl)acetic acid • (1′-benzyl-5-fluoro-2,2′,5′-trioxospiro[indole-3,3′-pyrrolidin]-1(2H)-yl)acetic acid • 4-(1′-allyl-5-chloro-2,2′,5′-trioxospiro[indole-3,3′-pyrrolidin]-1(2H)-yl)butanoic acid • [5-chloro-1′-(2-methoxyethyl)-2,2′,5′-trioxospiro[indole-3,3′-pyrrolidin]-1(2H)-yl]acetic acid • 4-(1′-benzyl-5-chloro-2,2′,5′-trioxospiro[indole-3,3′-pyrrolidin]-1(2H)-yl)butanoic acid • (1′-benzyl-5-methoxy-2,2′,5′-trioxospiro[indole-3,3′-pyrrolidin]-1(2H)-yl)acetic acid • [5-fluoro-1′-[(2-methoxyethoxy)methyl]-2,2′,5′-trioxospiro[indole-3,3′-pyrrolidin]-1(2H)-yl]acetic acid • 4-(1′-allyl-5-fluoro-2,2′,5′-trioxospiro[indole-3,3′-pyrrolidin]-1(2H)-yl)butanoic acid • 4-(1′-benzyl-5-fluoro-2,2′,5′-trioxospiro[indole-3,3′-pyrrolidin]-1(2H)-yl)butanoic acid
Ki values were determined by equilibrium competition binding experiments against [^3H]PGD2. Ki values were calculated from the formula below and represent the average of at least three independent dose response experiments. The Ki values give the ligand concentrations necessary to inhibit 50% of the binding of [^3H]PGD2 to CRTH2. Ki=IC50/(1+[Concentration of Ligand]/Kd)]
All experiments were performed in 96 well plates, in a final volume of 100 μl according to the above described filtration assay. The concentration of membranes and 3 [H]PGD2, as well as the positive and negative controls were identical to the conditions described above.

Compound | Ki [nM]
O=C(O)CN1C(=O)C2(CC(=O)N(Cc3cnc(Cl)cc3Cl)C2=O)c2cc(Cl)ccc21 (centres unmarked) [Compound 76, [5-chloro-1′-[(4,6-dichloropyridin-3-yl)methyl]-2,2′,5′-trioxospiro[indole-3,3′-pyrrolidin]-1(2H)-yl]acetic acid] | 12
O=C(O)CN1C(=O)C2(CC(=O)N(Cc3cccs3)C2=O)c2cc(Cl)ccc21 (centres unmarked) [Compound 77, [5-chloro-2,2′,5′-trioxo-1′-(2-thienylmethyl)spiro[indole-3,3′-pyrrolidin]-1(2H)-yl]acetic acid] | 75
Cn1ccnc1CN1C(=O)CC2(C1=O)C(=O)N(CC(=O)O)c1ccc(Cl)cc12 (centres unmarked) [Compound 32, [5-chloro-1′-[(1-methyl-1H-imidazol-2-yl)methyl]-2,2′,5′-trioxospiro[indole-3,3′-pyrrolidin]-1(2H)-yl]acetic acid] | 1820
N#Cc1ccc(CN2C(=O)CC3(C2=O)C(=O)N(CC(=O)O)c2ccc(Cl)cc23)cc1 (centres unmarked) [Compound 4, [5-chloro-1′-(4-cyanobenzyl)-2,2′,5′-trioxospiro[indole-3,3′-pyrrolidin]-1(2H)-yl]acetic acid] | 89
O=C(O)CN1C(=O)C2(CC(=O)N(CC3COc4ccccc4O3)C2=O)c2cc(Cl)ccc21 (centres unmarked) [Compound 16, [5-chloro-1′-(2,3-dihydro-1,4-benzodioxin-2-ylmethyl)-2,2′,5′-trioxospiro[indole-3,3′-pyrrolidin]-1(2H)-yl]acetic acid] | 213
O=C(O)CN1C(=O)C2(CC(=O)N(CCc3ccccc3)C2=O)c2cc(Cl)ccc21 (centres unmarked) [Compound 23, [5-chloro-2,2′,5′-trioxo-1′-(2-phenylethyl)spiro[indole-3,3′-pyrrolidin]-1(2H)-yl]acetic acid] | 267
O=C(O)CN1C(=O)C2(CC(=O)N(Cc3ccc(C(F)(F)F)o3)C2=O)c2cc(Cl)ccc21 (centres unmarked) [Compound 18, [5-chloro-2,2′,5′-trioxo-1′-{[5-(trifluoromethyl)-2-furyl]methyl}spiro[indole-3,3′-pyrrolidin]-1(2H)-yl]acetic acid] | 270
O=C(O)CN1C(=O)C2(NC(=O)N(Cc3ccccc3F)C2=O)c2cc(Cl)ccc21 (centres unmarked) [Compound 108, [5′-chloro-1-(2-fluorobenzyl)-2,2′,5-trioxospiro[imidazolidine-4,3′-indol]-1′(2′H)-yl]acetic acid] | 4.8
COc1ccnc(CN2C(=O)CC3(C2=O)C(=O)N(CC(=O)O)c2ccc(Cl)cc23)c1OC (centres unmarked) [Compound 78, [5-chloro-1′-[(3,4-dimethoxypyridin-2-yl)methyl]-2,2′,5′-trioxospiro[indole-3,3′-pyrrolidin]-1(2H)-yl]acetic acid] | 101
COc1ccccc1CN1C(=O)CC2(C1=O)C(=O)N(CC(=O)O)c1ccc(Cl)cc12 (centres unmarked) [Compound 54, [5-chloro-1′-(2-methoxybenzyl)-2,2′,5′-trioxospiro[indole-3,3′-pyrrolidin]-1(2H)-yl]acetic acid] | 153

More lines, now with the values ahead:

Ki [nM] | Compound
24 | O=C(O)CN1C(=O)C2(CC(=O)N(Cc3ccccc3F)C2=O)c2cc(Cl)ccc21 (centres unmarked) [Compound 104, [5-chloro-1′-(2-fluorobenzyl)-2,2′,5′-trioxospiro[indole-3,3′-pyrrolidin]-1(2H)-yl]acetic acid]
6 | O=C(O)CN1C(=O)C2(CC(=O)N(Cc3csc(-c4cccc(Cl)c4)n3)C2=O)c2cc(Cl)ccc21 (centres unmarked) [Compound 103, [5-chloro-1′-{[2-(3-chlorophenyl)-1,3-thiazol-4-yl]methyl}-2,2′,5′-trioxospiro[indole-3,3′-pyrrolidin]-1(2H)-yl]acetic acid]
300 | O=C(O)CN1C(=O)C2(NC(=O)N(Cc3ccccc3)C2=O)c2cc(Cl)ccc21 (centres unmarked) [Compound 107, (1-benzyl-5′-chloro-2,2′,5-trioxospiro[imidazolidine-4,3′-indol]-1′(2′H)-yl)acetic acid]
1120 | Cc1onc(-c2ccccc2)c1CN1C(=O)NC2(C1=O)C(=O)N(CC(=O)O)c1ccc(Cl)cc12 (centres unmarked) [Compound 106, [5′-chloro-1-[(5-methyl-3-phenylisoxazol-4-yl)methyl]-2,2′,5-trioxospiro[imidazolidine-4,3′-indol]-1′(2′H)-yl]acetic acid]
